Our source for the relative viability values is the supplement of paper PMC10307832.

Common to all, as to experiment: relative viability (nuclei count vs DMSO), 5 days (fraction); higher = more cells survive
Compound in the experiment “Dactolisib + Trametinib”: Cn1c(=O)n(-c2ccc(C(C)(C)C#N)cc2)c2c3cc(-c4cnc5ccccc5c4)ccc3ncc21 [Dactolisib] + CC(=O)Nc1cccc(-n2c(=O)n(C3CC3)c(=O)c3c(Nc4ccc(I)cc4F)n(C)c(=O)c(C)c32)c1 [Trametinib] (partner 0.02 µM)
The essentials: (§1)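 Each reported value is a median over duplicate plates. It expresses relative viability: treated-well nuclei count divided by vehicle-well nuclei count. Lung cancer cell lines in 1536-well plates were dosed by pin tool a day after seeding, alone with one drug or with a fixed anchor-drug dose plus five library-drug doses (not always all listed) in √10 steps, and nuclei were counted after 5 days.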

Compound in the experiment “Dactolisib + OSI-027”: Cn1c(=O)n(-c2ccc(C(C)(C)C#N)cc2)c2c3cc(-c4cnc5ccccc5c4)ccc3ncc21 [Dactolisib] + COc1cccc2cc(-c3nc([C@H]4CC[C@H](C(=O)O)CC4)n4ncnc(N)c34)[nH]c12 [OSI-027] (partner 0.5 µM)
Put shortly: as §1

Compound in the experiment “Dactolisib + Crizotinib”: Cn1c(=O)n(-c2ccc(C(C)(C)C#N)cc2)c2c3cc(-c4cnc5ccccc5c4)ccc3ncc21 [Dactolisib] + C[C@@H](Oc1cc(-c2cnn(C3CCNCC3)c2)cnc1N)c1c(Cl)ccc(F)c1Cl [Crizotinib] (partner 1 µM)
Put shortly:
as §1

Compound in the experiment “AZ505 + Olaparib”: C1CCC(CC1)N(CCNCCC2=C3C(=C(C=C2)O)NC(=O)CO3)C(=O)CCNCCC4=CC(=C(C=C4)Cl)Cl [AZ505] + O=C(c1cc(Cc2n[nH]c(=O)c3ccccc23)ccc1F)N1CCN(C(=O)C2CC2)CC1 [Olaparib] (partner 8 µM)
The essentials: as §1

As for PC-3 [JPC-3], the relative viability with Dactolisib + Trametinib (first compound 0.002 µM) was found to be 0.718; with Dactolisib + Trametinib (first compound 0.006325 µM), 0.673; with Dactolisib + Trametinib (first compound 0.02 µM) it was 0.76; with Dactolisib + Trametinib (first compound 0.06325 µM), 0.595; with Dactolisib + Trametinib (first compound 0.2 µM), 0.451; in the experiment with Dactolisib + OSI-027 (first compound 0.002 µM), 0.862. Also, the relative viability is 0.86 in the experiment with Dactolisib + OSI-027 (first compound 0.006325 µM); 0.72 with Dactolisib + OSI-027 (first compound 0.02 µM); 0.851 with Dactolisib + OSI-027 (first compound 0.06325 µM); 0.768 with Dactolisib + OSI-027 (first compound 0.2 µM); 1.08 in the experiment with Dactolisib + Crizotinib (first compound 0.002 µM); 0.979 in the experiment with Dactolisib + Crizotinib (first compound 0.006325 µM). Further, the relative viability with Dactolisib + Crizotinib (first compound 0.02 µM) stood at 0.916; with Dactolisib + Crizotinib (first compound 0.06325 µM), 0.874; with Dactolisib + Crizotinib (first compound 0.2 µM), 0.768; in the experiment with AZ505 + Olaparib (first compound 0.08 µM) it was 0.918; with AZ505 + Olaparib (first compound 0.8 µM), 0.944; in the experiment with AZ505 + Olaparib (first compound 2.53 µM), 1.01. Besides, the relative viability with AZ505 + Olaparib (first compound 8 µM) came out at 1.15.

With EMC-BAC-2, the relative viability was 0.897 with Dactolisib + Trametinib (first compound 0.002 µM); 0.866 in the experiment with Dactolisib + Trametinib (first compound 0.006325 µM); 0.839 in the experiment with Dactolisib + Trametinib (first compound 0.02 µM); 0.461 with Dactolisib + Trametinib (first compound 0.06325 µM); 0.375 in the experiment with Dactolisib + Trametinib (first compound 0.2 µM); 0.395 with Dactolisib + OSI-027 (first compound 0.002 µM). Further, the relative viability with Dactolisib + OSI-027 (first compound 0.006325 µM) was found to be 0.439; with Dactolisib + OSI-027 (first compound 0.02 µM), 0.405; with Dactolisib + OSI-027 (first compound 0.06325 µM), 0.346; with Dactolisib + OSI-027 (first compound 0.2 µM), 0.296; with Dactolisib + Crizotinib (first compound 0.002 µM), 0.834; in the experiment with Dactolisib + Crizotinib (first compound 0.006325 µM), 0.718. The relative viability was 0.708 with Dactolisib + Crizotinib (first compound 0.02 µM); 0.565 with Dactolisib + Crizotinib (first compound 0.06325 µM); 0.34 in the experiment with Dactolisib + Crizotinib (first compound 0.2 µM); 0.453 in the experiment with AZ505 + Olaparib (first compound 0.08 µM); 0.541 in the experiment with AZ505 + Olaparib (first compound 0.253 µM); 0.487 with AZ505 + Olaparib (first compound 0.8 µM). Also, the results for the relative viability with AZ505 + Olaparib (first compound 2.53 µM) and with AZ505 + Olaparib (first compound 8 µM) were 0.524 and 0.437, respectively.

Turning to LK-2, the relative viability in the experiment with Dactolisib + Trametinib (first compound 0.002 µM) came out at 0.609; with Dactolisib + Trametinib (first compound 0.006325 µM), 0.761; with Dactolisib + Trametinib (first compound 0.02 µM), 0.554; in the experiment with Dactolisib + Trametinib (first compound 0.06325 µM), 0.225; with Dactolisib + Trametinib (first compound 0.2 µM), 0.21; with Dactolisib + OSI-027 (first compound 0.002 µM), 0.176. Besides, the relative viability with Dactolisib + OSI-027 (first compound 0.006325 µM) came to 0.205; with Dactolisib + OSI-027 (first compound 0.02 µM), 0.213; in the experiment with Dactolisib + OSI-027 (first compound 0.06325 µM), 0.207; in the experiment with Dactolisib + OSI-027 (first compound 0.2 µM), 0.159; in the experiment with Dactolisib + Crizotinib (first compound 0.002 µM) it was 0.209; with Dactolisib + Crizotinib (first compound 0.006325 µM), 0.244. Further, the relative viability with Dactolisib + Crizotinib (first compound 0.02 µM) is 0.266; in the experiment with Dactolisib + Crizotinib (first compound 0.06325 µM), 0.213; with Dactolisib + Crizotinib (first compound 0.2 µM) it was 0.216; with AZ505 + Olaparib (first compound 0.08 µM), 0.597; with AZ505 + Olaparib (first compound 0.253 µM), 0.583; in the experiment with AZ505 + Olaparib (first compound 0.8 µM), 0.87. The figures for the relative viability in the experiment with AZ505 + Olaparib (first compound 2.53 µM) and in the experiment with AZ505 + Olaparib (first compound 8 µM) were 0.822 and 0.784, respectively.

In the case of NCI-H2126, the relative viability with Dactolisib + Trametinib (first compound 0.002 µM) was determined as 0.557; with Dactolisib + Trametinib (first compound 0.006325 µM), 0.548; with Dactolisib + Trametinib (first compound 0.02 µM) it was 0.433; with Dactolisib + Trametinib (first compound 0.06325 µM), 0.38; with Dactolisib + Trametinib (first compound 0.2 µM) it was 0.306; with Dactolisib + OSI-027 (first compound 0.002 µM), 0.92. The relative viability is 0.733 with Dactolisib + OSI-027 (first compound 0.006325 µM); 0.687 in the experiment with Dactolisib + OSI-027 (first compound 0.02 µM); 0.618 with Dactolisib + OSI-027 (first compound 0.06325 µM); 0.458 with Dactolisib + OSI-027 (first compound 0.2 µM); 1.07 in the experiment with Dactolisib + Crizotinib (first compound 0.002 µM); 1.03 with Dactolisib + Crizotinib (first compound 0.006325 µM). Besides, the relative viability in the experiment with Dactolisib + Crizotinib (first compound 0.02 µM) came out at 0.98; in the experiment with Dactolisib + Crizotinib (first compound 0.06325 µM), 0.713; with Dactolisib + Crizotinib (first compound 0.2 µM), 0.537; with AZ505 + Olaparib (first compound 0.08 µM), 0.841; with AZ505 + Olaparib (first compound 0.253 µM) it was 0.915; with AZ505 + Olaparib (first compound 0.8 µM), 0.827. Moreover, the relative viability is 0.878 with AZ505 + Olaparib (first compound 2.53 µM) and 0.948 in the experiment with AZ505 + Olaparib (first compound 8 µM).
